The values that follow come from US10670605B2, “Cysteine reactive probes and uses thereof” (The Scripps Research Institute, priority 2015, dated 2020).

Each structure is given as a SMILES string. Counter-ions that a name gives are not always drawn.

Assay [1] concerns primary mouse splenocytes. The note with it: wild type and Nrf2(-/-) splenocytes; cited from earlier work.
Assay [2] deals with primary human T cells. Kind of assay: IL-2 release (ELISA), anti-CD3 + anti-CD28 stimulated T cells. It counts as cell-based. The note with it: anti-CD3, anti-CD28 stimulation, 8 h. Here is the method: 96-well plates were coated with anti-CD3 (1:200; BioXcell) and anti-CD28 (1:500; 302933; BioLegend) in PBS (100 μL/well) overnight at 4° C. The plates were then washed twice with PBS and to each well was added 500,000 primary T cells in 100 μL of RPMI supplemented with 10% FBS, glutamine, and Pen-Strep. Cells were then treated with 100 μL of media containing compound at the indicated concentrations (final well volume of 200 μL). Cells were left at 37° C. in a 5% CO2 incubator for the indicated periods of time and harvested by centrifugation (500 g, 8 min, 4° C.), followed by washing with PBS. T cells were harvested and stimulated as described above. At the indicated time points, cell culture supernatants were collected and IL-2 levels were measured in clear microplates (991427; R&D Systems) according to the manufacturer's instructions (Human IL-2 DuoSet ELISA; DY202; R&D Systems). Plates were read in a Gemini SpectraMax 250 microplate reader set to 450 nm. Data represent mean±SE for four experiments per group.

Assay [3] deals with splenic T cells from C57BL/6 mice. The experiment in a line: Activation of primary mouse T cells (CD25, CD69). The note with it: C57BL/6, 8 h. It counts as cell-based. Here is the method:
Spleens were harvested from female mice, perfused with collagenase, and incubated at 37° C. with 5% CO2 for 30 min. After this time, the spleens were homogenized. Cells that passed through a 100 μm cell strainer were collected and washed with RPMI. T cells were isolated from the splenocytes using the EasySepTM Mouse T cell Isolation Kit (19851; […]) according to manufacturer's instructions. 96-well plates were coated with anti-CD3 (1:200; BioXcell) and anti-CD28 (1:500; 302933; BioLegend) in PBS (100 μL/well) overnight at 4° C. The plates were then washed twice with PBS and to each well was added 500,000 primary T cells in 100 μL of RPMI supplemented with 10% FBS, glutamine, and Pen-Strep. Cells were then treated with 100 μL of media containing compound at the indicated concentrations (final well volume of 200 μL). Cells were left at 37° C. in a 5% CO2 incubator for the indicated periods of time and harvested by centrifugation (500 g, 8 min, 4° C.), followed by washing with PBS. […] Data was then analyzed with FlowJo software (Treestar Inc.). […]

Assay [4] deals with cysteines in MDA-MB-231 and Ramos cell proteomes. Kind of assay: Competitive isoTOP-ABPP in cell lysates (in vitro): proteomic reactivity / liganded cysteine rate. It counts as binding, human. The note with it: fragment 500 μM; % of quantified cysteines with R ≥4. Here is the method: All cell lines were obtained from ATCC, were used with a low passage number and were grown at 37° C. with 5% CO2. MDA-MB-231 cells and HEK-293T cells were grown in DMEM supplemented with 10% fetal bovine serum, penicillin, streptomycin and glutamine. Jurkat, Ramos and MUM2C cells were grown in RPMI-1640 medium supplemented with 10% fetal bovine serum, penicillin and streptomycin. For in vitro labeling, cells were grown to 100% confluence for MDA-MB-231 cells or until cell density reached 1.5 million cells/mL for Ramos and Jurkat cells. […] Cell pellets were lysed by sonication and fractionated (100,000 g, 45 min) to yield soluble and membrane fractions, which were then adjusted to a final protein concentration of 1.5 mg/mL for proteomics experiments and 1 mg/mL for gel-based ABPP experiments. The soluble lysate was prepared fresh from frozen pellets directly before each experiment. Protein concentration was determined using the Bio-Rad DC™ protein assay kit.
For each sample, 100 μL of streptavidin-agarose beads slurry (Pierce) was washed in 10 mL PBS and then resuspended in 5 mL PBS. The SDS-solubilized proteins were added to the suspension of streptavidin-agarose beads and the bead mixture was rotated for 3 h at ambient temperature. After incubation, the beads were pelleted by centrifugation (1,400 g, 3 min) and were washed (2×10 mL PBS and 2×10 mL water).
The beads were transferred to eppendorf tubes with 1 mL PBS, centrifuged (1,400 g, 3 min), and resuspended in PBS containing 6 M urea (500 μL). To this was added 10 mM DTT (25 μL of a 200 mM stock in water) and the beads were incubated at 65° C. for 15 mins. 20 mM iodoacetamide (25 μL of a 400 mM stock in water) was then added and allowed to react at 37° C. for 30 mins with shaking. The bead mixture was diluted with 900 μL PBS, pelleted by centrifugation (1,400 g, 3 min), and resuspended in 200 μL PBS. To this was added 1 mM CaCl2 ([…]) and trypsin (2 μg, Promega, sequencing grade) and the digestion was allowed to proceed overnight at 37° C. with shaking. The beads were separated from the digest with Micro Bio-Spin columns (Bio-Rad) by centrifugation (1,000 g, 1 min), washed (2×1 mL PBS and 2×1 mL water) and then transferred to fresh eppendorfs with 1 mL water. The washed beads were washed once further in 140 μL TEV buffer (50 mM Tris, pH 8, 0.5 mM EDTA, 1 mM DTT) and then resuspended in 140 μL TEV buffer. 5 μL TEV protease (80 μM) was added and the reactions were rotated overnight at 29° C. The TEV digest was separated from the beads with Micro Bio-Spin columns by centrifugation (1,400 g, 3 min) and the beads were washed once with water (100 μL). The samples were then acidified to a final concentration of 5% (v/v) formic acid and stored at −80° C. prior to analysis.

With `COC(=O)/C=C/C(=O)OC` [DMF, dimethyl fumarate], in assay [1], the pro-inflammatory cytokine release result is listed as “inhibits”. Besides, in assay [2], the “secretion of IL-2” value is given as “strongly inhibited”. Besides, in assay [3], the “activation of primary mouse splenic T cells” value is listed as “suppressed”.

As for `O=C(CCl)Nc1cc(C(F)(F)F)cc(C(F)(F)F)c1` [compound 3], in assay [4], the “proteomic reactivity value (liganded cysteine rate)” value was 15%.
